The values that follow come from US20050118226A1, “Methods for treating ACAT-related diseases” (priority 2003, published 2005).

Entries after “also recorded” stand apart in the source; their conditions may differ.

One data set concerns ACAT. Description: Cholesterol determinations in non-transgenic mice given 21 day-release CP-113,818 pellets. In kind it is in vivo. The settings on record: 21 days. The text has this:
hAPP transgenic mice overexpress human APP751 with the London (V717I) and Swedish (K670M/N671L) mutations under the regulatory control of the neuron specific murine (m)Thy-1 promoter (mThy-1-hAPP751; heterozygous with respect to the transgene, on a C57BL/6 F3 background) (Rockenstein et al., 2001). The hAPP colony was sustained by crossing transgenic APP751 with C57BL/6 (Harlan Winkelman, Germany). Corresponding littermates were used for control studies. All mice were housed according to standard animal care protocols, fed ad libitum with standard chow diet, and maintained in a pathogen-free environment in single ventilated cages at JSW Research. The transgenic status of each animal was confirmed by real time PCR of tail snips using specific primers and the appropriate hybridization probe. A modified Irvine test was regularly performed prior to the experiment to assess the neurological status of the animals; those showing disturbances were excluded from the experiments. Mice were then randomly assigned to different treatment groups and individually coded. Investigators performing behavioral testing, biochemical analyzes and histomorphological evaluations of the brains were blinded in terms of group allocation of the mice. CP-113,818, a potent inhibitor of both ACAT1 and ACAT2 (Chang et al., 2000), was graciously provided by Dr. James Harwood, Pfizer (Groton, Conn.). The drug was compounded in release pellets for continuous dosing by Innovative Research of America (Sarasota, Fla.). Only the test compound, but not carrier biopolymers and substances in the pellets, are released into the bloodstream. Pellets were generated to provide either 21 day or 60 days of continuous drug delivery. For implantation of pellets, animals were anesthized with isofluorance. Then, sterile pellets containing either CP-113,818 or placebo were implanted subcutaneously along the anterolateral aspect of the left shoulder with a special precision trocar in accordance with the suppliers instructions.
Tissues were homogenized in the presence of trypsin (10 mg/ml) in a Dounce homogenizer on ice. Protein concentration of the homogenate was determined using the BCA protein assay kit (Pierce). The tissue homogenate was extracted in chloroform:methanol (2:1, v/v) overnight. Before drying the chloroform phase, polyoxyethylene-9-lauryl ether (Sigma; 5 μl/ml of extract) was added. Dried lipid pellets were dissolved in water and total amount of cholesterol was determined with an enzymatic assay (Sigma; cat. no. 402-20). As control, free cholesterol was determined with a different enzymatic assay (R-Biopharm GmbH, Darmstadt, Germany; cat. no. E0139050). The amount of cholesteryl-esters was calculated by subtracting free from total cholesterol. Finally, the values were normalized to protein concentration of the tissue homogenate and expressed in mg of cholesterol per g of protein.
CP-113,818 is a fatty-acid anilide derivative designed to mimic the acyl-CoA substrate of ACAT and a potent ACAT inhibitor in vitro, cell culture, and animals (Chang et al., 2000; Marzetta et al., 1994; Puglielli et al., 2001). In order to determine the in vivo efficacy of CP-113,818 in reducing mouse brain cholesteryl-ester levels, we initially treated non-transgenic animals with the ACAT inhibitor. Most ACAT inhibitors are poorly absorbed when administered orally, and are quickly turned over in the blood or tissues (Marzetta et al., 1994). […]

Data set [1] concerns hAPP mice and non-transgenic littermates. Description: Morris water maze spatial learning and memory test. It is filed as in vivo, mouse. As to the method:
53 days after the treatment, mice were trained in the Morris water maze (MWM) spatial navigation task in which a mouse swims to find a hidden platform, using visual cues. The task is based on the principle that rodents are highly motivated to escape from a water environment by the quickest, most direct route. This task is carried out in a circular pool (1 meter diameter) filled with water (22±1° C.) and virtually divided into four quadrants. A platform is placed in the southwest quadrant 1 cm beneath the surface of the water. The computer randomly changes the starting positions of an animal. On four consecutive days mice attend three trials per day (each lasting for a maximum of 60 seconds). Escape latency (time to find the hidden platform), and length of swimming path were measured. Significant differences of the behavioral results were calculated with the Mann Whitney U-test.
To analyze the effect of CP-113,818 treatment on cognitive function of hAPP mice, we performed Morris water maze spatial learning and memory tests on the animals. Since hAPP mice develop cognitive deficits starting at 6 months of age, the 6.5 month-old animals in our study were only expected to show slight deterioration due to Aβ accumulation, when compared to non-transgenic littermates. […] Clear impairment of cognitive function due to Aβ accumulation was only observed in female transgenic mice. […] This could have been due to a ceiling effect owing to maximum swimming speed. Compared to placebo, the improvement between day 1 and day 3 due to CP-113,818 treatment was significant (p<0.033). […] Although testing of more mice at an older age will be needed to further assess the effect of decreased amyloid pathology on spatial learning and memory, improved performance in a Morris water maze test correlated well with the highly significant decrease of overall plaque load and Aβ in CP-113,818-treated female animals.

A further data set concerns adrenal cortical cells. The data set is described as follows: Adrenal gland histology (hematoxylin and eosin) for CP-113,818 toxicity in hAPP mice. It is filed as in vivo. The settings on record: 7.2 mg/kg per day, two months, 7.2 mg/kg/day. As to the method:
Animals were sacrificed the day after the last MWM training, on day 57 of treatment. Blood was obtained by cardiac puncture and total serum was used for cholesterol determination. Transcardiac perfusion with 4C PBS was performed, followed by dissection. Brains were removed, divided along the sagittal plane and then either frozen in liquid nitrogen or imersion fixed with 4% paraformaldehyde for histologic evaluation. Liver was frozen in liquid nitrogen, and adrenal glands were fixed in 4% paraformaldehyde followed by standard paraffin embedding and sectioning. Hematoxylin and eosin stained 6-8 um sections were analyzed for evidence of CP-113,818 toxicity.
To characterize the effect of CP-113,818 treatment on AD-like pathology, we used hAPP mice that express human APP751 containing the London (V717I) and Swedish (K670M/N671L) mutations under the regulatory control of the murine Thy-1 promoter (mThy1-hAPP751) (Rockenstein et al., 2001). These animals develop detectable plaques in the neocortex and hippocampus at the ages of 4 and 6 months, respectively, and show memory deficits starting at 6 months of age. […] Therefore, we included similar numbers of male and female animals in both placebo and CP-113,818 groups to detect possible gender-specific effects of the inhibitor in our mouse model. […]

The mark [2] stands for this setting: 7.1 mg/kg/day, subcutaneous pellet, vs placebo.

Consider `CCCCCCCC[C@H](SCCCCCC)C(=O)Nc1c(SC)cc(C)nc1SC` [CP-113,818], for which the “effect on food consumption and body weight” value in the data set on ACAT (7.1 mg/kg per day) was “absence of any evident effect”. Besides, in the data set on ACAT (setting [2]), the “reduction of cholesteryl-ester levels in the brain” value was found to be 86% and the “reduction of total cholesterol in the serum” value was found to be 29%. In addition, in the data set with ACAT (0.2-7.1 mg/kg/day, dose-dependent), the “decrease of free or membrane cholesterol in the liver” value is given as “up to 37%”. Besides, in the data set with ACAT, the “effect on free cholesterol levels in the brain” value is “no effect”. For the same molecule, the “spatial learning of all hAPP mice taken together” value in data set [1] (all hAPP mice regardless of gender) is “trend toward acquiring the task quickly”. In addition, the “spatial learning performance of female hAPP mice (swimming path, escape latency)” value in data set [1] (female hAPP mice, days 54-57 of treatment) is recorded as “reversed the observed impairment; also recorded: improved this performance”. The “spatial learning performance of male hAPP mice” value in data set [1] (male hAPP mice) was “did not affect the performance”. Further, in data set [1] (male non-transgenic mice, day four, not escape latency), the “swimming path of male non-transgenic animals” value is reported as “performed better than the placebo-treated cohort; also recorded: slightly improved”. Further, the “spatial performance of non-transgenic female mice” value in data set [1] (non-transgenic female mice) is given as “did not affect spatial performance”. Moreover, in the data set with adrenal cortical cells, the “adrenal toxicity (vacuolization in cytoplasm of adrenal cortical cells)” value is reported as “no histologic evidence of toxicity; also recorded: did not show signs of vacuolization”.
